Source: patent US5049380A, “Anti-allergic extract” (Bar-Ilan University, priority 1989, dated 1991)

System: potato 5-lipoxygenase
Test: Inhibition of potato 5-lipoxygenase, arachidonic acid oxidation, polarographic
Type: biochemical
Details: caffeic acid 0.33 mM final concentration, AA 313 2 mg.
Protocol: A reaction mixture containing 1050 units potato 5-lipoxygenase was subjected to the action of the known inhibitor caffeic acid as well as to 2 mg AA 313. Enzyme activity was tested by the ability of a sample of the reaction mixture to oxidize arachidonic acid (concentration of 0.33 mM). […] Enzyme activity was estimated polarographically.

## O=C(O)/C=C/c1ccc(O)c(O)c1 [caffeic acid]
  % Inhibition: 64%
Control 1050 units
  Enzyme activity (units): 375 units
